ChEMBL document CHEMBL2073898, “Overexpression of the BCRP/MXR/ABCP gene in a topotecan-selected ovarian tumor cell line” (Cancer Res, 1999)

Key:
[1] = biological target: T1, Broad substrate specificity ATP-binding cassette transporter ABCG2 (Homo sapiens, UniProt Q9UNQ0); test: TP_TRANSPORTER: intracellular concentration of the drug is lower compared with IGROV1 in T8 cells; assay type: functional, cell-based
T1 sequence (Q9UNQ0 whole entry): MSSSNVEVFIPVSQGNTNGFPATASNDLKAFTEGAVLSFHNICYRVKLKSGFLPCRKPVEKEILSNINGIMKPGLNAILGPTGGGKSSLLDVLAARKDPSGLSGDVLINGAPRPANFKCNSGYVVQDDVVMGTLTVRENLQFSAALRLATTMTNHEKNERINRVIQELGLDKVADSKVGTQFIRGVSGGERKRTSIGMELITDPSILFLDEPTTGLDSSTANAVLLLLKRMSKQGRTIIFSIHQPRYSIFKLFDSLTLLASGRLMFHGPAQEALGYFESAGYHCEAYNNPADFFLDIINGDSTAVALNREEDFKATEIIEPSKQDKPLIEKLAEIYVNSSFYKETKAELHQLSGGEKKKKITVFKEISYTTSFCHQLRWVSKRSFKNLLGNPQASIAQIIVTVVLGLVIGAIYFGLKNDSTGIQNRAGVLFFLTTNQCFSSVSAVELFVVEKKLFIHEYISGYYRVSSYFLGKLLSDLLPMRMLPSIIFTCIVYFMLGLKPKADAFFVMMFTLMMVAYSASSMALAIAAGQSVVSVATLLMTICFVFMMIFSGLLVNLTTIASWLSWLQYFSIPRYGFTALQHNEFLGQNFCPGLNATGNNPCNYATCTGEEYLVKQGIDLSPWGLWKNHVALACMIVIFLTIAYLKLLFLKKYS

[2] = biological target: T1, Broad substrate specificity ATP-binding cassette transporter ABCG2; test: TP_TRANSPORTER: intracellular concentration of the drug is lower compared with IGROV1 in MX3 cells; assay type: functional, cell-based

## CC[C@@]1(O)C(=O)OCc2c1cc1n(c2=O)Cc2cc3c(CN(C)C)c(O)ccc3nc2-1 [TOPOTECAN]
[1]
  Activity: substrate [+]
[2]
  Activity: substrate [+]
